Read-outs that look alike come from different tables or passages of the source.
Tests used:
Surinam grass = assay: Test B pre-/postemergence herbicide test; type: in vivo, Urochloa decumbens; settings: for pest or weed control at 500 g/ha: 500 g ai/ha
Procedure, shortened: (§1)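 Test chemicals in a non-phytotoxic solvent mixture with surfactant were applied preemergence to seeded species and postemergence to plants 2-18 cm tall (1- to 4-leaf stage); rice and barnyardgrass were also tested in a flooded paddy at the 2-leaf stage. Visual rating versus controls after 13-15 days in greenhouse, scale 0 (no effect) to 100 (complete control).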

cocklebur = assay: Test B pre-/postemergence herbicide test; type: in vivo, Xanthium strumarium; settings: for pest or weed control at 500 g/ha: 500 g ai/ha
Procedure, shortened: (§2)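 Greenhouse pot assay with simultaneous preemergence (treated seed) and postemergence (2–18 cm seedlings) applications of surfactant-containing, non-phytotoxic solvent formulations. Response scored visually 13–15 days later on a 0–100 scale, 100 meaning complete control.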

corn = assay: Test B pre-/postemergence herbicide test; type: in vivo, Zea mays
Procedure, shortened: as §1

large crabgrass = assay: Test B pre-/postemergence herbicide test; type: in vivo, Digitaria sanguinalis; settings: for pest or weed control at 500 g/ha: 500 g ai/ha
Procedure, shortened: as §1

giant foxtail = assay: Test B pre-/postemergence herbicide test; type: in vivo, Setaria faberi; settings: for pest or weed control at 500 g/ha: 500 g ai/ha
Procedure, shortened: as §1

lambsquarters = assay: Test B pre-/postemergence herbicide test; type: in vivo, Chenopodium album; settings: for pest or weed control at 500 g/ha: 500 g ai/ha
Procedure, shortened: as §1

morningglory = assay: Test B pre-/postemergence herbicide test; type: in vivo, Ipomoea coccinea; settings: for pest or weed control at 500 g/ha: 500 g ai/ha
Procedure, shortened: as §2

pigweed = assay: Test B pre-/postemergence herbicide test; type: in vivo, Amaranthus retroflexus; settings: for pest or weed control at 500 g/ha: 500 g ai/ha
Procedure, shortened: as §1

velvetleaf = assay: Test B pre-/postemergence herbicide test; type: in vivo, Abutilon theophrasti
Procedure, shortened: as §1

blackgrass = assay: Test B postemergence herbicide test; type: in vivo, Alopecurus myosuroides; settings: Alopecurus myosuroides, post-emergence, 336 h, read-out: Blackgrass plant response rating
Procedure, shortened: (§3)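 Greenhouse test; postemergence application to plants at 1–4 leaves (2–18 cm); paddy species at 2 leaves; evaluated visually vs controls at 13–15 days; scale 0–100 (100 = complete control).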

wheat = assay: Test B postemergence herbicide test; type: in vivo, Triticum aestivum; settings: Triticum aestivum, post-emergence, 336 h, read-out: Wheat plant response rating
Procedure, shortened: (§4)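 Read-out: visual comparison with controls, scored 0 to 100, where 100 means complete control and 0 no effect. Formulated chemicals were applied postemergence to plants 2–18 cm tall (1- to 4-leaf), or to flooded-paddy plants at the 2-leaf stage, then held 13 to 15 days under glass.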

wild oat = assay: Test B postemergence herbicide test; type: in vivo, Avena fatua; settings: Avena fatua, post-emergence, 336 h, read-out: Oat, Wild plant response rating
Procedure, shortened: as §4

rice = assay: Test B flooded paddy test; type: in vivo, Oryza sativa; settings: Oryza sativa, 336 h, 1000 g ai/ha, scale 0 to 100 (0 no effect, 100 complete control), read-out: Rice plant response rating
Procedure, shortened: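 Paddy species grown to the 2-leaf stage under flooding; blackgrass sprayed postemergence at 2–18 cm (1- to 4-leaf stage). Plants kept in a greenhouse for 13 to 15 days, then visually rated against controls on 0 (no effect) to 100 (complete control).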

[1] = system: small flower umbrella sedge; assay: Test B flooded paddy test; type: in vivo, Cyperus difformis; settings: Cyperus difformis, 336 h, 1000 g ai/ha, scale 0 to 100 (0 no effect, 100 complete control), read-out: Sedge, Umbrella plant response rating
Procedure, shortened: as §3

barnyardgrass = assay: Test B flooded paddy test; type: in vivo, Echinochloa crus-galli; settings: Echinochloa crus-galli, 336 h, 1000 g ai/ha, scale 0 to 100 (0 no effect, 100 complete control), read-out: Barnyardgrass plant response rating
Procedure, shortened: as §3

[2] = 125 g ai/ha, 0 is no effect, 100 is complete control, preemergence
[3] = 125 g ai/ha, visual rating, scale 0 (no effect) to 100 (complete control)
[4] = postemergence, 500 g ai/ha, scale 0 to 100, 0 is no effect, 100 is complete control

CCc1nn(C(C)C)nc1C(=O)Nc1cccc(C(=O)N(C)C)c1 [Compound 358, N-[3-[(dimethylamino)carbonyl)phenyl]-5-ethyl-2-(1-methylethyl)-2H-1,2,3-triazole-4-carboxamide]
Plant response rating (0 to 100 scale), Surinam Grass (Surinam grass; [2]): 50 | pest or weed control at 125 g/ha (Surinam grass; Urochloa decumbens, post-emergence, 125 g ai/ha, visual rating, scale 0 (no effect) to 100 (complete control), read-out: Surinam Grass plant response rating): 10% | pest or weed control at 500 g/ha (Surinam grass; Urochloa decumbens, post-emergence, postemergence, scale 0 to 100, 0 is no effect, 100 is complete control, read-out: Surinam Grass plant response rating): 10% | pest or weed control at 500 g/ha (Surinam grass; Urochloa decumbens, pre-emergence, visual rating, 0 = no effect, 100 = complete control, read-out: Plant response rating, Surinam Grass): 100% | Plant response rating (0 to 100 scale), Cocklebur (cocklebur; [2]): 40 | pest or weed control at 125 g/ha (cocklebur; Xanthium strumarium, post-emergence, 125 g ai/ha, visual rating, scale 0 (no effect) to 100 (complete control), read-out: Cocklebur plant response rating): 0% | pest or weed control at 500 g/ha (cocklebur; Xanthium strumarium, post-emergence, postemergence, scale 0 to 100, 0 is no effect, 100 is complete control, read-out: Cocklebur plant response rating): 20% | pest or weed control at 500 g/ha (cocklebur; Xanthium strumarium, pre-emergence, visual rating, 0 = no effect, 100 = complete control, read-out: Plant response rating, Cocklebur): 90% | Plant response rating (0 to 100 scale), Corn (corn; [2]): 60 | plant injury at 125 g/ha (corn; Zea mays, post-emergence, 125 g ai/ha, visual rating, scale 0 (no effect) to 100 (complete control), read-out: Corn plant response rating): 0% | plant injury at 500 g/ha (corn; Zea mays, post-emergence, postemergence, 500 g ai/ha, scale 0 to 100, 0 is no effect, 100 is complete control, read-out: Corn plant response rating): 0% | Corn plant response rating (crop injury, 0 = no effect, 100 = complete kill) at 500 g/ha (corn; Zea mays, pre-emergence, 500 g ai/ha, visual rating, 0 = no effect, 100 = complete control): 100% | Plant response rating (0 to 100 scale), Crabgrass, Large (large crabgrass; [2]): 100 | pest or weed control at 125 g/ha (large crabgrass; Digitaria sanguinalis, post-emergence, 125 g ai/ha, visual rating, scale 0 (no effect) to 100 (complete control), read-out: Crabgrass, Large plant response rating): 10% | pest or weed control at 500 g/ha (large crabgrass; Digitaria sanguinalis, post-emergence, postemergence, scale 0 to 100, 0 is no effect, 100 is complete control, read-out: Crabgrass, Large plant response rating): 10% | pest or weed control at 500 g/ha (large crabgrass; Digitaria sanguinalis, pre-emergence, visual rating, 0 = no effect, 100 = complete control, read-out: Plant response rating, Crabgrass, Large): 100% | Plant response rating (0 to 100 scale), Foxtail, Giant (giant foxtail; [2]): 60 | pest or weed control at 125 g/ha (giant foxtail; Setaria faberi, post-emergence, 336 h, 125 g ai/ha, visual rating, scale 0 (no effect) to 100 (complete control), read-out: Foxtail, Giant plant response rating): 10% | pest or weed control at 500 g/ha (giant foxtail; Setaria faberi, post-emergence, 336 h, postemergence, scale 0 to 100, 0 is no effect, 100 is complete control, read-out: Foxtail, Giant plant response rating): 30% | pest or weed control at 500 g/ha (giant foxtail; Setaria faberi, pre-emergence, 336 h, visual rating, 0 = no effect, 100 = complete control, read-out: Plant response rating, Foxtail, Giant): 100% | Plant response rating (0 to 100 scale), Lambsquarters (lambsquarters; [2]): 100 | pest or weed control at 125 g/ha (lambsquarters; Chenopodium album, post-emergence, 336 h, 125 g ai/ha, visual rating, scale 0 (no effect) to 100 (complete control), read-out: Lambsquarters plant response rating): 30% | pest or weed control at 500 g/ha (lambsquarters; Chenopodium album, post-emergence, 336 h, postemergence, scale 0 to 100, 0 is no effect, 100 is complete control, read-out: Lambsquarters plant response rating): 50% | pest or weed control at 500 g/ha (lambsquarters; Chenopodium album, pre-emergence, 336 h, visual rating, 0 = no effect, 100 = complete control, read-out: Plant response rating, Lambsquarters): 100% | Plant response rating (0 to 100 scale), Morningglory (morningglory; [2]): 50 | pest or weed control at 125 g/ha (morningglory; Ipomoea, post-emergence, 336 h, 125 g ai/ha, visual rating, scale 0 (no effect) to 100 (complete control), read-out: Morningglory plant response rating): 20% | pest or weed control at 500 g/ha (morningglory; Ipomoea, post-emergence, 336 h, postemergence, scale 0 to 100, 0 is no effect, 100 is complete control, read-out: Morningglory plant response rating): 50% | pest or weed control at 500 g/ha (morningglory; Ipomoea, pre-emergence, 336 h, visual rating, 0 = no effect, 100 = complete control, read-out: Plant response rating, Morningglory): 100% | Plant response rating (0 to 100 scale), Pigweed (pigweed; [2]): 70 | pest or weed control at 125 g/ha (pigweed; Amaranthus retroflexus, post-emergence, 336 h, 125 g ai/ha, visual rating, scale 0 (no effect) to 100 (complete control), read-out: Pigweed plant response rating): 20% | pest or weed control at 500 g/ha (pigweed; Amaranthus retroflexus, post-emergence, 336 h, postemergence, scale 0 to 100, 0 is no effect, 100 is complete control, read-out: Pigweed plant response rating): 40% | pest or weed control at 500 g/ha (pigweed; Amaranthus retroflexus, pre-emergence, 336 h, visual rating, 0 = no effect, 100 = complete control, read-out: Plant response rating, Pigweed): 100% | Plant response rating (0 to 100 scale), Velvetleaf (velvetleaf; [2]): 50 | pest or weed control at 125 g/ha (velvetleaf; Abutilon theophrasti, post-emergence, 336 h, 125 g ai/ha, visual rating, scale 0 (no effect) to 100 (complete control), read-out: Velvetleaf plant response rating): 10% | pest or weed control at 500 g/ha (velvetleaf; Abutilon theophrasti, post-emergence, 336 h, postemergence, 500 g ai/ha, scale 0 to 100, 0 is no effect, 100 is complete control, read-out: Velvetleaf plant response rating): 20% | pest or weed control at 125 g/ha (blackgrass; [3]): 10% | pest or weed control at 500 g/ha (blackgrass; [4]): 40% | plant injury at 125 g/ha (wheat; [3]): 0% | plant injury at 500 g/ha (wheat; [4]): 10% | pest or weed control at 125 g/ha (wild oat; [3]): 20% | pest or weed control at 500 g/ha (wild oat; [4]): 30% | plant injury at 1000 g/ha (rice): 70% | pest or weed control at 1000 g/ha [1]: 80% | pest or weed control at 1000 g/ha (barnyardgrass): 80%

From patent publication US20060069132A1, “Azolecarboxamide herbicides” (priority 2004, published 2006)
